# Test results taken from ChEMBL document CHEMBL1154382, “Preliminary SAR analysis of novel antiproliferative N(6),5'-bis-ureidoadenosine derivatives” (2009).
# Assays:
# Assay type in all cases: functional
# [1] = system: UO-31; experiment: Antiproliferative activity against human UO31 cells
# [2] = system: NCI-H522; experiment: Antiproliferative activity against human NCI-H522 cells
# [3] = system: NCI-H226; experiment: Antiproliferative activity against human NCI-H226 cells
# [4] = system: A498; experiment: Antiproliferative activity against human A498 cells at 10 uM assessed as cell growth inhibition relative to control; details: values are per cent of control
# [5] = system: NCI-H226; experiment: Antiproliferative activity against human NCI-H226 cells at 10 uM assessed as cell growth inhibition relative to control; details: values are per cent of control
# [6] = system: MDA-MB-231; experiment: Antiproliferative activity against human MDA-MB-231 cells at 10 uM assessed as cell growth inhibition relative to control; details: values are per cent of control
# [7] = system: SF-268; experiment: Antiproliferative activity against human SF268 cells at 10 uM assessed as cell growth inhibition relative to control; details: values are per cent of control
# [8] = system: IGROV-1; experiment: Antiproliferative activity against human IGROV1 cells
# [9] = system: CCRF-CEM; experiment: Antiproliferative activity against human CCRF-CEM cells at 10 uM assessed as cell growth inhibition relative to control; details: values are per cent of control
# [10] = system: OVCAR-4; experiment: Antiproliferative activity against human OVCAR4 cells at 10 uM assessed as cell growth inhibition relative to control; details: values are per cent of control
# [11] = system: SK-MEL-5; experiment: Antiproliferative activity against human SK-MEL-5 cells at 10 uM assessed as cell growth inhibition relative to control; details: values are per cent of control
# [12] = system: A549; experiment: Antiproliferative activity against human A549 cells
# [13] = system: RXF 393; experiment: Antiproliferative activity against human RXF393 cells
# [14] = system: NCI-H522; experiment: Antiproliferative activity against human NCI-H522 cells at 10 uM assessed as cell growth inhibition relative to control; details: values are per cent of control
# [15] = system: SW-620; experiment: Antiproliferative activity against human SW620 cells at 10 uM assessed as cell growth inhibition relative to control; details: values are per cent of control
# [16] = system: HCT-116; experiment: Antiproliferative activity against human HCT116 cells at 10 uM assessed as cell growth inhibition relative to control; details: values are per cent of control
# [17] = system: MDA-MB-231; experiment: Antiproliferative activity against human MDA-MB-231 cells
# [18] = system: Malme-3M; experiment: Antiproliferative activity against human MALME-3M cells at 10 uM assessed as cell growth inhibition relative to control; details: values are per cent of control
# [19] = Antiproliferative activity against human […] cells
# [20] = system: T47D; experiment: Antiproliferative activity against human T47D cells
# [21] = system: CAKI-1; experiment: Antiproliferative activity against human Caki1 cells
# [22] = system: HL-60(TB); experiment: Antiproliferative activity against human HL-60(TB) cells at 10 uM assessed as cell growth inhibition relative to control; details: values are per cent of control
# [23] = system: A498; experiment: Antiproliferative activity against human A498 cells
# [24] = system: HOP-92; experiment: Antiproliferative activity against human HOP92 cells
# [25] = system: SNB-75; experiment: Antiproliferative activity against human SNB75 cells at 10 uM assessed as cell growth inhibition relative to control; details: values are per cent of control
# [26] = system: OVCAR-3; experiment: Antiproliferative activity against human OVCAR-3 cells at 10 uM assessed as cell growth inhibition relative to control; details: values are per cent of control
# [27] = system: UACC-62; experiment: Antiproliferative activity against human UACC62 cells at 10 uM assessed as cell growth inhibition relative to control; details: values are per cent of control
# [28] = system: U-251; experiment: Antiproliferative activity against human U251 cells at 10 uM assessed as cell growth inhibition relative to control; details: values are per cent of control
# [29] = system: SNB-19; experiment: Antiproliferative activity against human SNB19 cells
# [30] = system: SF-268; experiment: Antiproliferative activity against human SF268 cells
# [31] = system: SN12C; experiment: Antiproliferative activity against human SN12C cells at 10 uM assessed as cell growth inhibition relative to control; details: values are per cent of control
# [32] = system: NCI-H460; experiment: Antiproliferative activity against human NCI-H460 cells
# [33] = system: IGROV-1; experiment: Antiproliferative activity against human IGROV1 cells at 10 uM assessed as cell growth inhibition relative to control; details: values are per cent of control
# [34] = system: SW-620; experiment: Antiproliferative activity against human SW620 cells
# [35] = system: HCC 2998; experiment: Antiproliferative activity against human HCC2998 cells at 10 uM assessed as cell growth inhibition relative to control; details: values are per cent of control
# [36] = system: SK-OV-3; experiment: Antiproliferative activity against human SKOV3 cells at 10 uM assessed as cell growth inhibition relative to control; details: values are per cent of control
# [37] = system: SNB-75; experiment: Antiproliferative activity against human SNB75 cells
# [38] = system: ACHN; experiment: Antiproliferative activity against human ACHN cells at 10 uM assessed as cell growth inhibition relative to control; details: values are per cent of control
# [39] = system: MDA-MB-435; experiment: Antiproliferative activity against human MDA-MB-435 cells
# [40] = system: COLO 205; experiment: Antiproliferative activity against human COLO205 cells
# [41] = system: OVCAR-3; experiment: Antiproliferative activity against human OVCAR-3 cells
# [42] = system: NCI-H23; experiment: Antiproliferative activity against human NCI-H23 cells
# [43] = system: DU-145; experiment: Antiproliferative activity against human DU145 cells at 10 uM assessed as cell growth inhibition relative to control; details: values are per cent of control
# [44] = system: U-251; experiment: Antiproliferative activity against human U251 cells
# [45] = system: PC-3; experiment: Antiproliferative activity against human PC3 cells at 10 uM assessed as cell growth inhibition relative to control; details: values are per cent of control
# [46] = system: 786-0; experiment: Antiproliferative activity against human 786-0 cells at 10 uM assessed as cell growth inhibition relative to control; details: values are per cent of control
# [47] = system: CAKI-1; experiment: Antiproliferative activity against human Caki1 cells at 10 uM assessed as cell growth inhibition relative to control; details: values are per cent of control
# [48] = system: A549; experiment: Antiproliferative activity against human A549 cells at 10 uM assessed as cell growth inhibition relative to control; details: values are per cent of control
# [49] = system: SNB-19; experiment: Antiproliferative activity against human SNB19 cells at 10 uM assessed as cell growth inhibition relative to control; details: values are per cent of control
# [50] = system: UACC-257; experiment: Antiproliferative activity against human UACC257 cells
# [51] = system: SK-MEL-5; experiment: Antiproliferative activity against human SK-MEL-5 cells
# [52] = system: SK-OV-3; experiment: Antiproliferative activity against human SKOV3 cells
# [53] = system: SK-MEL-2; experiment: Antiproliferative activity against human SK-MEL-2 cells
# [54] = system: HCT-15; experiment: Antiproliferative activity against human HCT15 cells
# [55] = system: BT-549; experiment: Antiproliferative activity against human BT549 cells at 10 uM assessed as cell growth inhibition relative to control; details: values are per cent of control
# [56] = system: OVCAR-4; experiment: Antiproliferative activity against human OVCAR4 cells
# [57] = system: MOLT-4; experiment: Antiproliferative activity against human MOLT4 cells
# [58] = system: UACC-257; experiment: Antiproliferative activity against human UACC257 cells at 10 uM assessed as cell growth inhibition relative to control; details: values are per cent of control
# [59] = system: NCI-H460; experiment: Antiproliferative activity against human NCI-H460 cells at 10 uM assessed as cell growth inhibition relative to control; details: values are per cent of control
# [60] = system: HOP-62; experiment: Antiproliferative activity against human HOP62 cells
# [61] = system: TK-10; experiment: Antiproliferative activity against human TK10 cells
# [62] = Antiproliferative activity against human […] cells at 10 uM assessed as cell growth inhibition relative to control; details: values are per cent of control
smiles,measurement,setting,value
CCOC(=O)C[C@H]1[C@@H](O[Si](C)(C)C(C)(C)C)[C@H](n2cnc3c(NC(=O)Nc4ccccc4)ncnc32)O[C@@H]1COC(=O)NC,GI50,[1],5.7 µM
same,GI50,[2],9.58 µM
same,GI50,[3],11.8 µM
same,"growth, % of control at 10 µM",[4],77%
same,"growth, % of control at 10 µM",[5],56%
same,"growth, % of control at 10 µM",[6],72%
same,"growth, % of control at 10 µM",[7],60%
same,GI50,[8],13.7 µM
same,"growth, % of control at 10 µM",[9],57%
same,"growth, % of control at 10 µM",[10],42%
same,"growth, % of control at 10 µM",[11],24%
same,GI50,[12],6.93 µM
same,GI50,[13],2.94 µM
same,"growth, % of control at 10 µM",[14],45%
same,"growth, % of control at 10 µM",[15],72%
same,"growth, % of control at 10 µM",[16],17%
same,GI50,[17],17.5 µM
same,"growth, % of control at 10 µM",[18],54%
same,GI50,[19],2.16 µM
same,GI50,[20],4.95 µM
same,GI50,[21],3.72 µM
same,"growth, % of control at 10 µM",[22],23%
same,GI50,[23],4.65 µM
same,GI50,[24],6.52 µM
same,"growth, % of control at 10 µM",[25],45%
same,"growth, % of control at 10 µM",[26],51%
same,"growth, % of control at 10 µM",[27],65%
same,"growth, % of control at 10 µM",[28],52%
same,GI50,[29],49.2 µM
same,GI50,[30],5.06 µM
same,"growth, % of control at 10 µM",[31],35%
same,GI50,[32],4.45 µM
same,"growth, % of control at 10 µM",[33],49%
same,GI50,[34],4.59 µM
same,"growth, % of control at 10 µM",[35],-9%
same,"growth, % of control at 10 µM",[36],95%
same,GI50,[37],10.3 µM
same,"growth, % of control at 10 µM",[38],26%
same,GI50,[39],3.26 µM
same,GI50,[40],7.7 µM
same,GI50,[41],2.42 µM
same,GI50,[42],12.9 µM
same,"growth, % of control at 10 µM",[43],59%
same,GI50,[44],7.57 µM
same,"growth, % of control at 10 µM",[45],32%
same,"growth, % of control at 10 µM",[46],73%
same,"growth, % of control at 10 µM",[47],61%
same,"growth, % of control at 10 µM",[48],51%
same,"growth, % of control at 10 µM",[49],99%
same,GI50,[50],20.8 µM
same,GI50,[51],5.7 µM
same,GI50,[52],40.4 µM
same,GI50,[53],13.2 µM
same,GI50,[54],11.7 µM
same,"growth, % of control at 10 µM",[55],65%
same,GI50,[56],10.7 µM
same,GI50,[57],1.99 µM
same,"growth, % of control at 10 µM",[58],60%
same,"growth, % of control at 10 µM",[59],13%
same,GI50,[60],14.7 µM
same,GI50,[61],10.7 µM
same,"growth, % of control at 10 µM",[62],39%
